The supplement of paper PMC11061612

Key:
Test in all cases: combination Emax (second highest fraction inhibited in the dose matrix, 72 h); higher = more inhibition; extreme values may be limits of the assay
[1] = tested on: AsPC-1 (Pancreatic Carcinoma)
In short: (§1)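 Cell lines in DMEM/F12 or RPMI with 10% FBS were plated in 1536-well plates, held 24 hours at 37°C, 5% CO2, then given two-drug dose matrices for 72 hours (DMSO typically 0.2%). Viability was read by CellTiter-Glo 2.0 luminescence and scaled as inhibition from 0 (vehicle wells) to 1 (blank wells). Combination Emax is the second-highest inhibition in the matrix; Bliss excess is observed combination effect minus expected EA + EB − EA·EB, EA and EB being single-agent effects.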

[2] = tested on: SK-MM-2 (Plasma Cell Myeloma)
In short: as §1

[3] = tested on: SW684 (Other Solid Carcinomas)
In short: as §1

[4] = tested on: COLO-684 (Endometrial Carcinoma)
In short: as §1

[5] = tested on: KYSE-70 (Esophageal Squamous Cell Carcinoma)
In short: as §1

[6] = tested on: SJRH30 (Rhabdomyosarcoma)
In short: as §1

[7] = tested on: Caov-3 (Ovarian Carcinoma)
In short: as §1

[8] = tested on: EB-3 (Burkitt's Lymphoma)
In short: as §1

[9] = tested on: NCI-H810 (Non-Small Cell Lung Carcinoma)
In short: as §1

[10] = tested on: RPMI-8866 (Chronic Myelogenous Leukemia)
In short: as §1

[11] = tested on: NCI-H1623 (Lung Adenocarcinoma)
In short: as §1

[12] = tested on: SNU-175 (Colorectal Carcinoma)
In short: as §1

[13] = tested on: HSC-3 (Oral Cavity Carcinoma)
In short: as §1

ES-2 (Ovarian Carcinoma) = tested on: ES-2 (Ovarian Carcinoma)
In short: as §1

KYM-1 (Rhabdomyosarcoma) = tested on: KYM-1 (Rhabdomyosarcoma)
In short: as §1

[14] = tested on: PANC-02-03 (Pancreatic Carcinoma)
In short: as §1

[15] = tested on: OVTOKO (Ovarian Carcinoma)
In short: as §1

HuO-3N1 (Osteosarcoma) = tested on: HuO-3N1 (Osteosarcoma)
In short: as §1

[16] = tested on: RERF-LC-KJ (Lung Adenocarcinoma)
In short: as §1

[17] = tested on: NCI-H1563 (Lung Adenocarcinoma)
In short: as §1

SMILES	combination Emax [1]	combination Emax [2]	combination Emax [3]	combination Emax [4]	combination Emax [5]	combination Emax [6]	combination Emax [7]	combination Emax [8]	combination Emax [9]	combination Emax [10]	combination Emax [11]	combination Emax [12]	combination Emax [13]	combination Emax (ES-2 (Ovarian Carcinoma))	combination Emax (KYM-1 (Rhabdomyosarcoma))	combination Emax [14]	combination Emax [15]	combination Emax (HuO-3N1 (Osteosarcoma))	combination Emax [16]	combination Emax [17]
CCN(CCO)CCCOc1ccc2c(Nc3cc(CC(=O)Nc4cccc(F)c4)[nH]n3)ncnc2c1 [AZD2811] + O=C(c1cc(Cc2n[nH]c(=O)c3ccccc23)ccc1F)N1CCN(C(=O)C2CC2)CC1 [Olaparib] (first compound max 1 µM, 7x7, partner max 10 µM)	0.18	0.232	0.265	0.291	0.203	0.255	0.82	0.282	0.646	0.69	0.442	0.611	0.351	0.192	0.402	0.307	0.223	0.178	0.333	0.158
CN(CCO)CC[C@H](CSc1ccccc1)Nc1ccc(S(=O)(=O)NC(=O)c2ccc(N3CCC([C@@H](O)c4ccccc4-c4ccc(Cl)cc4)CC3)cc2)cc1S(=O)(=O)C(F)(F)F [AZD4320] + C1CN(CCC1(C(=O)N[C@@H](CCO)C2=CC=C(C=C2)Cl)N)C3=NC=NC4=C3C=CN4 [Capivasertib] (first compound max 1 µM, 7x7, partner max 3 µM)	0.643	1	0.449	0.447	0.167	0.427	0.363	0.191	0.482	0.641	0.278	0.501	0.53	0.131	0.0568	0.0923	0.413	0.201	0.293	0.389
CN(CCO)CC[C@H](CSc1ccccc1)Nc1ccc(S(=O)(=O)NC(=O)c2ccc(N3CCC([C@@H](O)c4ccccc4-c4ccc(Cl)cc4)CC3)cc2)cc1S(=O)(=O)C(F)(F)F [AZD4320] + C=CCn1c(=O)c2cnc(Nc3ccc(N4CCN(C)CC4)cc3)nc2n1-c1cccc(C(C)(C)O)n1 [AZD1775] (first compound max 1 µM, partner max 1 µM)	0.728	1	0.381	0.763	0.67	0.93	0.979	0.681	0.954	1	0.608	0.717	0.707	0.722	0.617	0.585	0.621	0.349	0.272	0.26
CN(CCO)CC[C@H](CSc1ccccc1)Nc1ccc(S(=O)(=O)NC(=O)c2ccc(N3CCC([C@@H](O)c4ccccc4-c4ccc(Cl)cc4)CC3)cc2)cc1S(=O)(=O)C(F)(F)F [AZD4320] + CCN(CCO)CCCOc1ccc2c(Nc3cc(CC(=O)Nc4cccc(F)c4)[nH]n3)ncnc2c1 [AZD2811] (first compound max 1 µM, 7x7, partner max 1 µM)	0.541	1	0.158	0.178	0.391	0.503	0.94	0.241	0.894	0.952	0.197	0.996	0.664	0.168	0.125	0.179	0.166	0.152	0.309	0.188
CN(CCO)CC[C@H](CSc1ccccc1)Nc1ccc(S(=O)(=O)NC(=O)c2ccc(N3CCC([C@@H](O)c4ccccc4-c4ccc(Cl)cc4)CC3)cc2)cc1S(=O)(=O)C(F)(F)F [AZD4320] + CN(C)CCCOc1ccc(-c2ccc3ncc4c(c3c2)n(C2CCOCC2)c(=O)n4C)cn1 [AZD0156] (first compound max 1 µM, 7x7, partner max 1 µM)	0.602	1	0.19	0.148	0.115	0.147	0.541	0.387	0.453	0.552	0.191	0.467	0.145	0.15	0.14	0.138	0.25	0.164	0.267	0.321
CN(CCO)CC[C@H](CSc1ccccc1)Nc1ccc(S(=O)(=O)NC(=O)c2ccc(N3CCC([C@@H](O)c4ccccc4-c4ccc(Cl)cc4)CC3)cc2)cc1S(=O)(=O)C(F)(F)F [AZD4320] + C[C@@H]1COCCN1C2=NC(=NC(=C2)C3(CC3)[S@](=N)(=O)C)C4=C5C=CNC5=NC=C4 [AZD6738] (first compound max 1 µM, 7x7, partner max 10 µM)	0.662	1	0.537	0.728	0.493	0.927	0.958	0.578	0.86	1	0.871	0.936	0.691	0.94	0.95	0.615	0.54	0.479	0.324	0.433
CN(CCO)CC[C@H](CSc1ccccc1)Nc1ccc(S(=O)(=O)NC(=O)c2ccc(N3CCC([C@@H](O)c4ccccc4-c4ccc(Cl)cc4)CC3)cc2)cc1S(=O)(=O)C(F)(F)F [AZD4320] + Cc1cc2ncnn2cc1Nc1ncc2c(n1)n(C1CCOCC1)c(=O)n2C [AZD7648] (first compound max 1 µM, 7x7, partner max 10 µM)	0.566	1	0.184	0.197	0.132	0.147	0.551	0.334	0.43	0.665	0.298	0.446	0.151	0.501	0.0895	0.109	0.361	0.139	0.288	0.35
CN(CCO)CC[C@H](CSc1ccccc1)Nc1ccc(S(=O)(=O)NC(=O)c2ccc(N3CCC([C@@H](O)c4ccccc4-c4ccc(Cl)cc4)CC3)cc2)cc1S(=O)(=O)C(F)(F)F [AZD4320] + Cn1cnc2c(F)c(Nc3ccc(Br)cc3Cl)c(C(=O)NOCCO)cc21 [Selumetinib] (first compound max 1 µM, 7x7, partner max 3 µM)	0.759	1	0.609	0.355	0.229	0.487	0.803	0.393	0.615	0.854	0.859	0.865	0.701	0.466	0.203	0.55	0.318	0.221	0.298	0.198
Cc1c2c(nn1C)CSCc1cc(n(C)n1)CSc1cc(c3ccccc3c1)OCCCc1c(C(=O)O)n(C)c3c-2c(Cl)ccc13 [AZD5991] + C1CN(CCC1(C(=O)N[C@@H](CCO)C2=CC=C(C=C2)Cl)N)C3=NC=NC4=C3C=CN4 [Capivasertib] (first compound max 1 µM, 7x7, partner max 3 µM)	0.161	0.325	0.402	0.599	0.246	0.669	0.307	0.299	0.286	0.52	1	0.492	0.728	0.196	0.466	0.179	0.367	0.881	0.495	0.774
Cc1c2c(nn1C)CSCc1cc(n(C)n1)CSc1cc(c3ccccc3c1)OCCCc1c(C(=O)O)n(C)c3c-2c(Cl)ccc13 [AZD5991] + C=CCn1c(=O)c2cnc(Nc3ccc(N4CCN(C)CC4)cc3)nc2n1-c1cccc(C(C)(C)O)n1 [AZD1775] (first compound max 1 µM, partner max 1 µM)	0.369	0.707	0.273	0.739	0.655	0.912	0.775	0.732	0.949	0.978	0.959	0.868	0.851	0.842	0.755	0.594	0.618	1	0.563	0.595
Cc1c2c(nn1C)CSCc1cc(n(C)n1)CSc1cc(c3ccccc3c1)OCCCc1c(C(=O)O)n(C)c3c-2c(Cl)ccc13 [AZD5991] + CC1(C)CCC(CN2CCN(c3ccc(C(=O)NS(=O)(=O)c4ccc(NCC5CCOCC5)c([N+](=O)[O-])c4)c(Oc4cnc5[nH]ccc5c4)c3)CC2)=C(c2ccc(Cl)cc2)C1 [Venetoclax] (first compound max 1 µM, 7x7, partner max 1 µM)	0.12	1	0.174	0.244	0.103	0.588	0.453	0.145	0.533	0.438	0.905	0.926	0.466	0.241	0.592	0.138	0.198	0.733	0.444	0.768
